# Laboratory results reported in paper PMC11229439 (GeroScience, 2023).
# pKi: −log10 of the molar value.
# Molecular target: T1, cystathionine γ-lyase (CGL) (Rattus norvegicus, UniProt P18757)
# T1 construct: gene Cth
# Experiment: homoserine γ-elimination assay (2-oxobutanoate), Dixon plot
# Type: biochemical
# T1 sequence (P18757 whole entry): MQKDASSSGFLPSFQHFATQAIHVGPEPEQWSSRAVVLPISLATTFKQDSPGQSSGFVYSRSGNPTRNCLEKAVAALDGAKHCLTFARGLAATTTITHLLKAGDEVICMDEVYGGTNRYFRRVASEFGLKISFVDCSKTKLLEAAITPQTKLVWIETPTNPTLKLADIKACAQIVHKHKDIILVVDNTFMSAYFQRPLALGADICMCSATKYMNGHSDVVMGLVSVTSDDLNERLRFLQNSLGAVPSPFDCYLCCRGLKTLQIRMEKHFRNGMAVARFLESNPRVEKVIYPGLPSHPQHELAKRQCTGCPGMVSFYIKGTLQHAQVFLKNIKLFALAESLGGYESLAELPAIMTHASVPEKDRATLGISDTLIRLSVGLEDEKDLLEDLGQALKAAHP
structure (smiles),measurement,value
N[C@@H](CS)C(=O)O [cysteine],pKi,3.28
